Patent US20220396565A1 (Hoffmann-La Roche Inc., priority 2020, published 2022)
Counter-ions that a name gives are not always drawn. Like-named read-outs stand apart in the source and are kept apart here.

System: Acinetobacter baumannii ATCC17961
Experiment: Antimicrobial susceptibility testing: 90% growth inhibitory concentration (IC90) determination, Iso-Sensitest broth
Type: cell-based
Conditions: Acinetobacter baumannii
How it was run: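 Twofold serial dilutions (e.g. 10 to 0.02 μM final) were tested in Iso-Sensitest broth against ~5×10^(5) CFU/ml at 35±2 °C. OD600 was read every 20 min over 16 h. IC90 was derived from growth inhibition during the logarithmic phase.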

[1] = ATCC17961, 90% growth inhibitory concentration, Acinetobacter baumannii ATCC17961, Iso-Sensitest broth, read-out: ATCC 17961 IC90

SMILES | IC90 [1] [nM] | IC90 (ATCC17961, read-out: ATCC 17961 IC90) [nM]
Cc1cc(NC(=O)c2ncc(-c3ccc(OCC#N)c(F)c3F)n2C)ccc1C(=O)N1CCC(C(=O)N2CCO[C@@H](CN)C2)CC1 [Example 87, (S)-N-(4-(4-(2-(aminomethyl)morpholine-4-carbonyl)piperidine-1-carbonyl)-3-methylphenyl)-5-(4-(cyanomethoxy)-2,3-difluorophenyl)-1-methyl-1H-imidazole-2-carboxamide 2,2,2-trifluoroacetate] | 120 | –
COc1ccc(-c2cnc(C(=O)Nc3ccc(C(=O)N4CC(NC(=O)C5CCNCC5)C4)c(Cl)c3)n2C)c(F)c1F [Example 187, N-[1-[2-chloro-4-[[5-(2,3-difluoro-4-methoxy-phenyl)-1-methyl-imidazole-2-carbonyl]amino]benzoyl]azetidin-3-yl]piperidine-4-carboxamide formate] | 110 | –
Cn1c(-c2ccc(OCC#N)c(F)c2Cl)cnc1C(=O)Nc1ccc(C(=O)N2CCN(C(=O)C3(O)CCNCC3)CC2)c(Cl)c1 [Example 251, 5-[2-chloro-4-(cyanomethoxy)-3-fluoro-phenyl]-N-[3-chloro-4-[4-(4-hydroxypiperidine-4-carbonyl)piperazine-1-carbonyl]phenyl]-1-methyl-imidazole-2-carboxamide formate] | 50 | –
Cn1c(-c2ccc(OCF)c(F)c2F)cnc1C(=O)Nc1ccc(C(=O)N2CCN(C(=O)[C@@H]3C[C@@H](O)CN3)CC2)c(Cl)c1 [Example 221, N-(3-chloro-4-(4-((2S,4R)-4-hydroxypyrrolidine-2-carbonyl)piperazine-1-carbonyl)phenyl)-5-(2,3-difluoro-4-(fluoromethoxy)phenyl)-1-methyl-1H-imidazole-2-carboxamide formate] | 50 | –
COc1ccc(-c2cnc(C(=O)Nc3ccc(C(=O)N4CCC(C(=O)N5CCN[C@H](CO)C5)CC4)c(Cl)c3)n2C)c(F)c1F [Example 29, N-[3-chloro-4-[4-[(3S)-3-(hydroxymethyl)piperazine-1-carbonyl]piperidine-1-carbonyl]phenyl]-5-(2,3-difluoro-4-methoxy-phenyl)-1-methyl-imidazole-2-carboxamide] | 190 | –
COc1ccc(-c2cnc(C(=O)Nc3ccc(C(=O)N4CC5(CNC5)C4)c(Cl)c3)n2C)c(F)c1F [Example 42, N-[3-chloro-4-(2,6-diazaspiro[3.3]heptane-2-carbonyl)phenyl]-5-(2,3-difluoro-4-methoxy-phenyl)-1-methyl-imidazole-2-carboxamide trifluoroacetate] | 170 | –
Cn1c(-c2ccc(OCF)c(F)c2F)cnc1C(=O)Nc1ccc(C(=O)N2CCN(C(=O)CC3(O)CCNCC3)CC2)c(Cl)c1 [Example 164, N-[3-chloro-4-[4-[2-(4-hydroxy-4-piperidyl)acetyl]piperazine-1-carbonyl]phenyl]-5-[2,3-difluoro-4-(fluoromethoxy)phenyl]-1-methyl-imidazole-2-carboxamide formate] | 70 | –
Cn1c(-c2ccc(OCC#N)c(F)c2F)cnc1C(=O)Nc1ccc(C(=O)N2CCN(C(=O)CN3CC(C(=O)O)C3)CC2)c(Cl)c1 [Example 212, 1-(2-(4-(2-chloro-4-(5-(4-(cyanomethoxy)-2,3-difluorophenyl)-1-methyl-1H-imidazole-2-carboxamido)benzoyl)piperazin-1-yl)-2-oxoethyl)azetidine-3-carboxylic acid 2,2,2-trifluoroacetate] | 850 | –
COc1ccc(-c2cnc(C(=O)Nc3ccc(C(=O)N4CCN(C(=O)CCOCCOCCN)CC4)c(Cl)c3)n2C)c(F)c1F [Example 131, N-[4-[4-[3-[2-(2-aminoethoxy)ethoxy]propanoyl]piperazine-1-carbonyl]-3-chloro-phenyl]-5-(2,3-difluoro-4-methoxy-phenyl)-1-methyl-imidazole-2-carboxamide formate] | 90 | –
Cn1c(-c2ccc(OCC#N)c(F)c2F)cnc1C(=O)Nc1ccc(C(=O)N2CCN(C(=O)NCCN)CC2)c(Cl)c1 [Example 281, N-(2-Aminoethyl)-4-(2-chloro-4-(5-(4-(cyanomethoxy)-2,3-difluorophenyl)-1-methyl-1H-imidazole-2-carboxamido)benzoyl)piperazine-1-carboxamide 2,2,2-trifluoroacetate] | – | 60
Cn1c(-c2ccc(OC(F)F)c(F)c2F)cnc1C(=O)Nc1ccc(C(=O)N2CCN(C(=O)[C@@H]3C[C@@H](O)CN3)CC2)c(Cl)c1 [Example 163, N-[3-chloro-4-[4-[(2S,4R)-4-hydroxypyrrolidine-2-carbonyl]piperazine-1-carbonyl]phenyl]-5-[4-(difluoromethoxy)-2,3-difluoro-phenyl]-1-methyl-imidazole-2-carboxamide formate] | 40 | –

Second part, led by results:

IC90 [1] [nM] | SMILES | IC90 (ATCC17961, read-out: ATCC 17961 IC90) [nM]
60 | COc1ccc(-c2cnc(C(=O)Nc3ccc(C(=O)N4CCN(C(=O)C[C@H]5CCNC5)CC4)c(Cl)c3)n2C)c(F)c1F [Example 153, N-[3-chloro-4-[4-[2-[(3R)-pyrrolidin-3-yl]acetyl]piperazine-1-carbonyl]phenyl]-5-(2,3-difluoro-4-methoxy-phenyl)-1-methyl-imidazole-2-carboxamide formate] | –
70 | Cn1c(-c2ccc(OC(F)F)c(F)c2F)cnc1C(=O)Nc1ccc(C(=O)N2CCC(C(=O)N3CC[C@H](N)C3)CC2)c(Cl)c1 [Example 46, N-[4-[4-[(3S)-3-aminopyrrolidine-1-carbonyl]piperidine-1-carbonyl]-3-chloro-phenyl]-5-[4-(difluoromethoxy)-2,3-difluoro-phenyl]-1-methyl-imidazole-2-carboxamide trifluoroacetate] | –
150 | COc1ccc(-c2cnc(C(=O)Nc3ccc(C(=O)N4CCN(S(=O)(=O)C5CCNC5)CC4)c(Cl)c3)n2C)c(F)c1F (centres unmarked) [Example 241, N-[3-chloro-4-(4-pyrrolidin-3-ylsulfonylpiperazine-1-carbonyl)phenyl]-5-(2,3-difluoro-4-methoxy-phenyl)-1-methyl-imidazole-2-carboxamide] | –
90 | COc1ccc(-c2cnc(C(=O)Nc3ccc(C(=O)N4CCC(NC(=O)[C@@H]5C[C@@H](O)CN5)CC4)c(Cl)c3)n2C)c(F)c1F [Example 102, N-[3-chloro-4-[4-[[(2S,4R)-4-hydroxypyrrolidine-2-carbonyl]amino]piperidine-1-carbonyl]phenyl]-5-(2,3-difluoro-4-methoxy-phenyl)-1-methyl-imidazole-2-carboxamide] | –
50 | Cn1c(-c2ccc(OCF)c(F)c2Cl)cnc1C(=O)Nc1ccc(C(=O)N2CCC(C(=O)N[C@@H]3CNC[C@H]3O)CC2)c(Cl)c1 [Example 53, 1-[2-chloro-4-[[5-[2-chloro-3-fluoro-4-(fluoromethoxy)phenyl]-1-methyl-imidazole-2-carbonyl]amino]benzoyl]-N-[(3R,4R)-4-hydroxypyrrolidin-3-yl]piperidine-4-carboxamide formate] | –
260 | COc1ccc(-c2cnc(C(=O)Nc3ccc(C(=O)N4CCN(C(=O)CCCC[C@@H]5SC[C@@H]6NC(=O)N[C@@H]65)CC4)c(Cl)c3)n2C)c(F)c1F [Example 130, N-[4-[4-[5-[(3aS,4S,6aR)-2-oxo-1,3,3a,4,6,6a-hexahydrothieno[3,4-d]imidazol-4-yl]pentanoyl]piperazine-1-carbonyl]-3-chloro-phenyl]-5-(2,3-difluoro-4-methoxy-phenyl)-1-methyl-imidazole-2-carboxamide] | –
